This note sets out measurements from ChEMBL document CHEMBL1157784, “Antitumor activity and COMPARE analysis of bis-indole derivatives” (Bioorg Med Chem, 2010).

Holding throughout (assay type): functional
Experiment [1] is described as follows: Growth inhibition of human renal cancer cell by NCI-CLS assay. The following applies: Cancer cell lines; for CC50: read-out: LC50 (the source's name).
Experiment [2] in a line: Growth inhibition of human prostate cancer cell by NCI-CLS assay. The following applies: Cancer cell lines; for CC50: read-out: LC50 (the source's name).
The nature of experiment [3]: Growth inhibition of human colon cancer cell by NCI-CLS assay. The following applies: Cancer cell lines.
Experiment [4] can be described thus: Growth inhibition of human ovarian cancer cell by NCI-CLS assay. The following applies: Cancer cell lines; for CC50: read-out: LC50 (the source's name).
The nature of experiment [5]: Growth inhibition of human leukemia cell by NCI-CLS assay.
Experiment [6] can be described thus: Growth inhibition of human melanoma cell by NCI-CLS assay. The conditions noted are these: for CC50: read-out: LC50 (the source's name).
The nature of experiment [7]: Growth inhibition of human breast cancer cell by NCI-CLS assay. The conditions noted are these: Cancer cell lines; for CC50: read-out: LC50 (the source's name).
Experiment [8] is described as follows: Growth inhibition of human CNS cancer cell by NCI-CLS assay. The conditions noted are these: Cancer cell lines; for CC50: read-out: LC50 (the source's name).
For the next experiment, the system named is NSCLC. Nature of the experiment: Growth inhibition of human NSCLC cell by NCI-CLS assay.

Structures are written as SMILES.

A word on the GI50: it is the concentration that inhibits growth by half. Read a high GI50 as less potent growth inhibition. Usually TGI stands for the concentration giving total growth inhibition. On to `O=C1Nc2cccc(F)c2C1=Cc1cccc(C=C2C(=O)Nc3cccc(F)c32)n1`, for which the GI50 came out at 1.1 µM in experiment [1]; 1.4 µM in experiment [2]; 0.7 µM in experiment [3]; 1.6 µM in experiment [4]; 0.8 µM in experiment [5]; 0.9 µM in [6]. The GI50 in [7] came out at 0.8 µM; in [8], 1.1 µM; with NSCLC, 2 µM. For the same compound, the TGI was found to be 3.8 µM in [1]; 12.9 µM in experiment [2]; 3.3 µM in [3]; 8.5 µM in experiment [4]; 9.8 µM in [5]; 2.8 µM in [6]. For the same compound, the TGI is 10 µM in experiment [7], 5.7 µM in experiment [8] and 10.2 µM in the experiment on NSCLC.
What is called LC50 is the concentration that kills 50% of the test population. `CC(C)(C)c1cc(/C=C2/C(=O)Nc3cccc(Cl)c32)c(O)c(/C=C2/C(=O)Nc3cccc(Cl)c32)c1`: the GI50 in experiment [1] is 3.6 µM; in experiment [2], 2.2 µM; in experiment [3], 2.2 µM; in experiment [4], 2.2 µM; in experiment [5], 2.8 µM; in [6] it was 2.9 µM. The GI50 is 2.4 µM in [7], 2.3 µM in [8] and 3.5 µM in the experiment on NSCLC. The TGI was found to be 15.8 µM in [1]; 10.2 µM in experiment [2]; 6.2 µM in [3]; 15.8 µM in experiment [4]; 46.8 µM in experiment [5]; 9.3 µM in [6]. The TGI was 11.5 µM in experiment [7], 11 µM in experiment [8] and 15.1 µM in the experiment with NSCLC. Besides, the CC50 was found to be 56.2 µM in experiment [1]; 72.4 µM in [2]; 44.7 µM in [4]; 36.3 µM in [6]; 67.6 µM in experiment [7]; 58.9 µM in experiment [8]. Moreover, the LC50 in experiment [3] was 21.9 µM; in the experiment on NSCLC it was 64.6 µM.
In the case of `COc1ccc2c(c1)/C(=C\c1ccc3ccc4ccc(/C=C5/C(=O)Nc6ccc(OC)cc65)nc4c3n1)C(=O)N2`, the GI50 in experiment [1] stood at 3.3 µM; in experiment [2], 3.7 µM; in [3], 2.8 µM; in experiment [4] it was 5.5 µM; in experiment [5], 3 µM; in experiment [6], 3.2 µM. Further, the GI50 came to 3.9 µM in experiment [7], 3.8 µM in experiment [8] and 3.2 µM with NSCLC. Besides, the TGI in experiment [1] turned out to be 19.5 µM; in experiment [2], 36.3 µM; in experiment [3], 16.2 µM; in [4] it was 58.9 µM; in experiment [5], 60.3 µM; in experiment [6] it was 11.5 µM. Further, the TGI was found to be 75.9 µM in experiment [7] and 28.2 µM in the experiment with NSCLC. Further, the CC50 in [1] worked out at 97.7 µM; in experiment [6] it was 74.1 µM. In the experiment on NSCLC, this compound returned an LC50 of 75.9 µM.
Regarding `O=C1Nc2cccc(Cl)c2/C1=C\c1ccc2ccc3ccc(/C=C4/C(=O)Nc5cccc(Cl)c54)nc3c2n1`, the 50% growth inhibitory concentration (GI50) stood at 9.5 µM in experiment [1]; 3.8 µM in [2]; 3.9 µM in [3]; 6.2 µM in experiment [4]; 1.1 µM in experiment [5]; 13.2 µM in experiment [6]. For the same compound, the GI50 in experiment [7] is 14.4 µM; in experiment [8], 7.4 µM; in the experiment on NSCLC, 25.7 µM. Also, the TGI in [1] amounted to 58.9 µM; in experiment [2], 31.6 µM; in experiment [3], 30.9 µM; in experiment [4], 30.9 µM; in experiment [5], 30.2 µM; in [6], 42.7 µM. Moreover, the TGI in experiment [7] was determined as 70.8 µM; in experiment [8], 34.7 µM; in the experiment on NSCLC, 79.4 µM. Further, the CC50 stood at 97.7 µM in experiment [1]; 79.4 µM in experiment [2]; 70.8 µM in experiment [4]; 61.7 µM in experiment [6]; 93.3 µM in experiment [7]; 77.6 µM in experiment [8]. In experiment [3], the LC50 turned out to be 79.4 µM.
With `Cc1[nH]c(C)c(/C=C2/C(=O)Nc3ccc(F)cc32)c1/C=C1/C(=O)Nc2ccc(F)cc21`, the GI50 in experiment [1] amounted to 9.1 µM; in experiment [2] it was 7.9 µM; in [3], 5 µM; in experiment [4], 8.1 µM; in experiment [5], 2.4 µM; in experiment [6], 5.1 µM. In addition, the GI50 in [7] was 4.9 µM; in experiment [8], 3.4 µM; in the experiment on NSCLC, 7.8 µM. The TGI was found to be 32.4 µM in [1]; 20.4 µM in [2]; 17 µM in experiment [3]; 25.7 µM in experiment [4]; 9.1 µM in experiment [5]; 18.2 µM in experiment [6]. Further, the TGI came out at 22.4 µM in experiment [7], 13.2 µM in [8] and 25.1 µM with NSCLC. The CC50 in experiment [1] was 75.9 µM; in experiment [2], 44.7 µM; in [4], 72.4 µM; in experiment [6], 52.5 µM; in experiment [7], 70.8 µM; in experiment [8], 46.8 µM. Also, the figures for the LC50 (in experiment [3]; in [5]; in the experiment with NSCLC) were 53.7 µM, 37.1 µM and 74.1 µM, respectively.
As for `O=C1Nc2cccc(Cl)c2/C1=C\c1cccc(/C=C2/C(=O)Nc3cccc(Cl)c32)c1`, the GI50 in experiment [1] came to 2.3 µM; in [2], 1.5 µM; in [3], 2.6 µM; in experiment [4], 2.7 µM; in experiment [5], 1.3 µM; in experiment [6] it was 3.2 µM. Also, the GI50 was found to be 2.4 µM in experiment [7], 1.7 µM in experiment [8] and 4.2 µM in the experiment on NSCLC. Also, the TGI was found to be 9.3 µM in experiment [1]; 16.2 µM in experiment [2]; 14.8 µM in [3]; 14.4 µM in experiment [4]; 9.8 µM in experiment [5]; 16.6 µM in [6]. The values for the TGI (in experiment [7]; in experiment [8]; with NSCLC) were 13.2 µM, 13.5 µM and 20.4 µM, respectively. Besides, the CC50 in experiment [1] stood at 36.3 µM; in experiment [2], 50.1 µM; in [4] it was 41.7 µM; in experiment [6] it was 34.7 µM; in [7], 42.7 µM; in experiment [8] it was 38.9 µM. The LC50 came out at 33.1 µM in experiment [3], 27.5 µM in experiment [5] and 42.7 µM with NSCLC.
With `COc1ccc2c(c1)/C(=C\c1ccccc1/C=C1/C(=O)Nc3ccc(OC)cc31)C(=O)N2`, the GI50 in [1] was 21.4 µM; in experiment [2], 14.4 µM; in experiment [3] it was 7.8 µM; in experiment [4], 14.1 µM; in experiment [5], 5.4 µM; in experiment [6] it was 13.8 µM. For the same compound, the values for the GI50 (in experiment [7]; in experiment [8]; with NSCLC) were 7.8 µM, 14.1 µM and 14.1 µM, respectively. Also, the TGI was 79.4 µM in [1]; 58.9 µM in [2]; 87.1 µM in experiment [3]; 91.2 µM in experiment [6]; 72.4 µM in experiment [8]; 87.1 µM with NSCLC.
With `COc1ccc2c(c1)/C(=C\c1cc(C(C)(C)C)cc(/C=C3/C(=O)Nc4ccc(OC)cc43)c1O)C(=O)N2`, the GI50 was determined as 7.2 µM in experiment [1]; 4.8 µM in experiment [2]; 6.3 µM in experiment [3]; 5.9 µM in [4]; 3.9 µM in experiment [5]; 4.4 µM in experiment [6]. For the same compound, the GI50 amounted to 5.5 µM in [7], 4.8 µM in experiment [8] and 8.7 µM in the experiment with NSCLC. Besides, the TGI in [1] was 22.4 µM; in experiment [2], 24.5 µM; in [3], 19.9 µM; in experiment [4], 25.1 µM; in [5], 43.6 µM; in experiment [6], 13.2 µM. Besides, the TGI came out at 31.6 µM in experiment [7], 21.4 µM in [8] and 32.4 µM in the experiment on NSCLC. Also, the CC50 in [1] was determined as 61.7 µM; in experiment [2] it was 72.4 µM; in [4], 61.7 µM; in experiment [6] it was 39.8 µM; in experiment [7], 63.1 µM; in experiment [8] it was 66.1 µM. The LC50 in experiment [3] stood at 53.7 µM; in the experiment on NSCLC, 69.2 µM.
Consider `O=C1Nc2cccc(I)c2/C1=C\c1cccc(/C=C2/C(=O)Nc3cccc(I)c32)n1`, for which the GI50 in experiment [1] is 0.9 µM; in experiment [2], 0.6 µM; in [3], 0.5 µM; in experiment [4] it was 1.1 µM; in experiment [5], 0.9 µM; in experiment [6] it was 1 µM. The GI50 in experiment [7] came to 0.8 µM; in experiment [8] it was 1.2 µM; in the experiment on NSCLC, 1.3 µM. Moreover, the TGI in [1] came to 2.6 µM; in experiment [2], 2.2 µM; in experiment [3], 1.9 µM; in experiment [4], 5.6 µM; in experiment [5], 30.9 µM; in experiment [6], 3.2 µM. Besides, the TGI in [7] turned out to be 4.4 µM; in experiment [8], 4 µM; with NSCLC it was 5 µM. The CC50 worked out at 8.3 µM in experiment [1]; 24 µM in [2]; 22.4 µM in [4]; 13.5 µM in experiment [6]; 21.9 µM in experiment [7]; 13.8 µM in experiment [8]. The LC50 in experiment [3] came out at 7.6 µM; with NSCLC it was 21.9 µM.
Turning to `COc1ccc2c(c1)/C(=C\c1cccc(/C=C3/C(=O)Nc4ccc(OC)cc43)c1)C(=O)N2`, the GI50 came to 2.5 µM in experiment [1]; 1.7 µM in experiment [2]; 1.7 µM in [3]; 2.1 µM in experiment [4]; 1 µM in experiment [5]; 1.2 µM in experiment [6]. The figures for the GI50 (in [7]; in [8]; in the experiment on NSCLC) were 1.2 µM, 1.4 µM and 3 µM, respectively. Besides, the TGI was determined as 6.2 µM in experiment [1]; 4.1 µM in experiment [2]; 7.4 µM in experiment [3]; 6.3 µM in experiment [4]; 11.5 µM in experiment [5]; 2.9 µM in experiment [6]. The TGI in experiment [7] was determined as 5 µM; in [8] it was 4.3 µM; in the experiment with NSCLC, 11 µM. Also, the CC50 in experiment [1] turned out to be 79.4 µM; in [2], 25.7 µM; in experiment [4] it was 95.5 µM; in experiment [6], 30.2 µM; in [8] it was 29.5 µM. Also, the LC50 in experiment [3] stood at 83.2 µM; in the experiment on NSCLC, 85.1 µM.
